How the values were obtained:
[1] = target: T1, murine acetylcholinesterase (mAChE) (Mus musculus, UniProt P21836); assay: Ellman's method enzyme assay, mAChE inhibition; format: biochemical; conditions: for % inhibition at 10 μM mAChE: 10 μM compound, n.i. = no inhibition
T1 sequence (P21836 32-614): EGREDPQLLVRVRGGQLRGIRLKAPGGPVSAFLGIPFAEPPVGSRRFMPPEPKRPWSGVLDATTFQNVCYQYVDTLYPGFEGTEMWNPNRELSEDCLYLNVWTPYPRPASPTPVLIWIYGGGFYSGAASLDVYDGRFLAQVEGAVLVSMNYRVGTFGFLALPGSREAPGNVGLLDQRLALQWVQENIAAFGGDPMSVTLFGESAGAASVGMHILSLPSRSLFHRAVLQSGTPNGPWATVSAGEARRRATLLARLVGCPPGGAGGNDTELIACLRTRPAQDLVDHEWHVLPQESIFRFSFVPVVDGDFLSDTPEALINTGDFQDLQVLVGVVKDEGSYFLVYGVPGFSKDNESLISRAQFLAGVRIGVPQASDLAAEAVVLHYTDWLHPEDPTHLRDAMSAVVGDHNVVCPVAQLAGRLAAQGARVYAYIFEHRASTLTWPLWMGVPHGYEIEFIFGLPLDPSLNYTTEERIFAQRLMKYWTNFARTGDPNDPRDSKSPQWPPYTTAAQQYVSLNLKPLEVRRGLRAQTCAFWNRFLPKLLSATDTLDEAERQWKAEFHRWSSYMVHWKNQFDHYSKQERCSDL
Source text: (§1) Ellman's method was used to evaluate the inhibitory activities of the synthesized compounds against the cholinesterases. […] As a substrate butyrylthiocholine (BTC) and acetylthiocholine (ATC) iodides were used for BChE and AChE, respectively. […] For the reference sample, 1% dimethylsulfoxide (DMSO) replaced the inhibitor's solution.
(§2) Potency of the inhibitor is expressed as a residual activity (RA) of the enzyme at the employed inhibitor's concentration, half maximal inhibitory concentration (IC50 value) and as an inhibition constant (Ki).
(§3) The enzyme reactions were carried out using murine acetylcholinesterase (mAChE) and human recombinant butyrylcholinesterase (huBChE). From the lyophilised powders of both enzymes, the solutions were obtained by dissolution of the powders in 10 mM MES buffer (pH 6.5) to reach the concentration of 4 mg/mL. The concentrated enzyme solution was diluted prior use in 100 mM phosphate buffer (pH 8.0) to reach the activity of the enzyme in the assay of approximately 500 mAu per minute.
(§4) ATCI in BTCI solutions were prepared in 100 mM phosphate buffer (pH 8.0) to reach the final concentration in the assay of 500 μM.
Stock solutions of compounds were prepared in DMSO in a concentration of 10 mM.
(§5) Enzyme solutions were prepared by dilution of the concentrated stocks in the 100 mM phosphate buffer (pH 8.0). […] Enzyme reaction was started with the addition of the substrate. The DMSO concentration in the test solution was always 1%. […] For the determination of blank (b) the phosphate buffer replaced the enzyme solution. Initial velocity of the enzyme reaction (v0) was determined from the linear curve of the enzyme reaction product formation, where each measurement was performed in triplicate. For the initial screening of inhibition ability, […] concentration of the investigated compounds was used. Compounds were pipetted in the corresponding wells to reach the final concentration of 10 μM. Tested compound and the enzyme solution were first preincubated for 300s, followed by the substrate addition, which triggered the enzyme reaction. The initial velocity in presence of the inhibitor was further calculated (vi). The inhibition capability was expressed as residual activity (RA=(vi−b)/(vo−b)).
(§6) IC50 values were determined by plotting the RA versus the concentration of the investigated compound.
(§7) Where X is a common logarithm of the concentration of the inhibitor and Y is the residual activity. For solving the equation Gnuplot software and an in-house python script were used. For the determination of the inhibition constant full progress curves of the product formation in presence and absence of investigated compounds were monitored. The curves were submitted in the ENZO web-application, which allows solving of numerical equations.

[2] = target: human recombinant butyrylcholinesterase (huBChE) (Homo sapiens, UniProt P06276); assay: biochemical; conditions: read-out: IC50 ± STD (μM) huBChE
Chain of human recombinant butyrylcholinesterase (huBChE) (P06276 29-602): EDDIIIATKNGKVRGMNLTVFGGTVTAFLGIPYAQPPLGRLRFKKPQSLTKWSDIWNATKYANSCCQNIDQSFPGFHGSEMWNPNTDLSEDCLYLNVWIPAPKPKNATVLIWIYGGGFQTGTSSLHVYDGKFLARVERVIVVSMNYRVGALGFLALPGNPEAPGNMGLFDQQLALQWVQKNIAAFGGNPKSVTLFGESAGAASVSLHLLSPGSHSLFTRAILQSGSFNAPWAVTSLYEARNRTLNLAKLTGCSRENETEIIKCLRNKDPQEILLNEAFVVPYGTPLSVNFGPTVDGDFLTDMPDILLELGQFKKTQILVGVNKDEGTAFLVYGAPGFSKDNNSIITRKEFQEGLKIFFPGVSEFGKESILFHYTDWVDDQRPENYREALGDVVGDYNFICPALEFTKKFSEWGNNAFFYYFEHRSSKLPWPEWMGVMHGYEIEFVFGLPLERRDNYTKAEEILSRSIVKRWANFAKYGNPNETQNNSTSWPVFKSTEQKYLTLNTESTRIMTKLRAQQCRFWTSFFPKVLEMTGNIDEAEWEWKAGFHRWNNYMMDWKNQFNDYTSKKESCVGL
Source text: as §1, §2, §3, §4, §5, §6, §7

Row | Compound | inhibition at 10 µM ([1]; read-out: % inhibition ± STD at 10 μM inhibitor mAChE, Table 1, formula (I), 10 μM inhibitor) | % inhibition at 10 μM mAChE ([1]; Table 2, formula (II)) | IC50 [2] | IC50 ([1]; Table 2, formula (II), substrate ATCI 500 μM, read-out: IC50 ± STD (μM) mAChE)
1 | CN(C)CCN(CC1CCCN(C2Cc3ccccc3C2)C1)C(=O)c1ccc2ccccc2c1 (stereo not drawn) | 17.4 ± 3.7% |  |  | 
2 | COCCN(CC1CCCN(C2Cc3ccccc3C2)C1)S(=O)(=O)c1ccc2ccccc2c1 (stereo not drawn) |  | 72 ± 0.86% |  | 
3 | COCCN(CC1CCCN(C2Cc3ccccc3C2)C1)S(=O)(=O)c1ccccc1 (stereo not drawn) |  | n.i. | 0.343 ± 0.005 µM | 
4 | COCCN(CC1CCCN(C2Cc3ccccc3C2)C1)S(=O)(=O)c1ccc(C)cc1 (stereo not drawn) |  | n.i. | 0.279 ± 0.008 µM | 
5 | COCCN(CC1CCCN(C2Cc3ccccc3C2)C1)S(=O)(=O)c1ccc(F)cc1 (stereo not drawn) |  | n.i. | 0.887 ± 0.08 µM | 
6 | COCCN(CC1CCCN(C2Cc3ccccc3C2)C1)S(=O)(=O)c1ccc(OC)cc1 (stereo not drawn) |  | n.i. | 0.482 ± 0.066 µM | 
7 | COCCN(CC1CCCN(C2Cc3ccccc3C2)C1)S(=O)(=O)c1ccc([N+](=O)[O-])cc1 (stereo not drawn) |  | n.i. | 3.47 ± 0.052 µM | 
8 | COCCN(CC1CCCN(C2Cc3ccccc3C2)C1)S(=O)(=O)c1ccc(N)cc1 (stereo not drawn) |  | n.i. | 0.314 ± 0.036 µM | 
9 | COCCN(CC1CCCN(C2Cc3ccccc3C2)C1)S(=O)(=O)c1ccc(NC(C)=O)cc1 (stereo not drawn) |  | n.i. | 0.321 ± 0.035 µM | 
10 | COCCN(CC1CCCN(C2Cc3ccccc3C2)C1)S(=O)(=O)c1cccc([N+](=O)[O-])c1 (stereo not drawn) |  |  | 3.61 ± 0.528 µM | 
11 | COCCN(CC1CCCN(C2Cc3ccccc3C2)C1)S(=O)(=O)c1cccc(N)c1 (stereo not drawn) |  | n.i. |  | 
12 | COCCN(CC1CCCN(C2Cc3ccccc3C2)C1)S(=O)(=O)c1cccc(NC(C)=O)c1 (stereo not drawn) |  | n.i. | 8.21 ± 0.601 µM | 
13 | COCCN(CC1CCCN(C2Cc3ccccc3C2)C1)S(=O)(=O)c1ccccc1C(=O)OC (stereo not drawn) |  | n.i. | 0.359 ± 0.018 µM | 
14 | CNC(=O)c1ccccc1S(=O)(=O)N(CCOC)CC1CCCN(C2Cc3ccccc3C2)C1 (stereo not drawn) |  | n.i. | 3.23 ± 0.492 µM | 
15 | COCCN(CC1CCCN(Cc2ccccc2)C1)S(=O)(=O)c1ccc2ccccc2c1 (stereo not drawn) |  | n.i. |  | 
16 | COCCN(CC1CCCN(Cc2ccc(F)cc2)C1)S(=O)(=O)c1ccc2ccccc2c1 (stereo not drawn) |  | n.i. | 0.231 ± 0.006 µM | 
17 | COCCN(CC1CCCN(Cc2cccc(F)c2)C1)S(=O)(=O)c1ccc2ccccc2c1 (stereo not drawn) |  | n.i. | 0.0491 ± 0.0012 µM | 
18 | COCCN(CC1CCCN(Cc2ccc(C#N)cc2)C1)S(=O)(=O)c1ccc2ccccc2c1 (stereo not drawn) |  | n.i. | 1.46 ± 0.115 µM | 
19 | COCCN(CC1CCCN(Cc2cccc(C#N)c2)C1)S(=O)(=O)c1ccc2ccccc2c1 (stereo not drawn) |  | n.i. | 0.338 ± 0.008 µM | 
20 | COCCN(CC1CCCN(Cc2ccc(N(C)C)cc2)C1)S(=O)(=O)c1ccc2ccccc2c1 (stereo not drawn) |  | n.i. | 0.311 ± 0.022 µM | 
21 | O=S(=O)(NCC1CCCN(Cc2ccccc2)C1)c1ccc2ccccc2c1 (stereo not drawn) |  | n.i. |  | 

Row | Compound | inhibition at 10 µM ([1]; read-out: % inhibition ± STD at 10 μM inhibitor mAChE, Table 1, formula (I), 10 μM inhibitor) | % inhibition at 10 μM mAChE ([1]; Table 2, formula (II)) | IC50 [2] | IC50 ([1]; Table 2, formula (II), substrate ATCI 500 μM, read-out: IC50 ± STD (μM) mAChE)
22 | CN(CC1CCCN(Cc2ccccc2)C1)S(=O)(=O)c1ccc2ccccc2c1 (stereo not drawn) |  | n.i. |  | 
23 | CCN(CC1CCCN(Cc2ccccc2)C1)S(=O)(=O)c1ccc2ccccc2c1 (stereo not drawn) |  | n.i. | 0.038 ± 0.0026 µM | 
24 | CCCN(CC1CCCN(Cc2ccccc2)C1)S(=O)(=O)c1ccc2ccccc2c1 (stereo not drawn) |  | n.i. | 0.0428 ± 0.0064 µM | 
25 | CCCCN(CC1CCCN(Cc2ccccc2)C1)S(=O)(=O)c1ccc2ccccc2c1 (stereo not drawn) |  | n.i. | 0.0355 ± 0.0044 µM | 
26 | COCCCN(CC1CCCN(Cc2ccccc2)C1)S(=O)(=O)c1ccc2ccccc2c1 (stereo not drawn) |  | n.i. |  | 
27 | COCCN(CC1CCN(Cc2ccccc2)CC1)S(=O)(=O)c1ccc2ccccc2c1 |  | n.i. |  | 
28 | COCCCN(CC1CCN(Cc2ccccc2)CC1)S(=O)(=O)c1ccc2ccccc2c1 |  | n.i. |  | 
29 | O=S(=O)(NCC1CCN(Cc2ccccc2)CC1)c1ccc2ccccc2c1 |  |  |  | 1.78 ± 0.085 µM
30 | COCCN(CC1CCN(C2Cc3ccccc3C2)CC1)S(=O)(=O)c1ccc2ccccc2c1 |  | n.i. |  | 
31 | COCCCN(CC1CCN(C2Cc3ccccc3C2)CC1)S(=O)(=O)c1ccc2ccccc2c1 |  | n.i. |  | 
32 | Cc1cccc(CN2CCCC(CNS(=O)(=O)c3ccc4ccccc4c3)C2)c1 (stereo not drawn) |  | 57 ± 3.55% | 0.287 ± 0.022 µM | 
33 | O=S(=O)(NCC1CCCN(Cc2ccc(F)cc2)C1)c1ccc2ccccc2c1 (stereo not drawn) |  | 75 ± 4.19% | 0.583 ± 0.043 µM | 
34 | Cc1nc(CN2CCCC(CNS(=O)(=O)c3ccc4ccccc4c3)C2)cs1 (stereo not drawn) |  | 71 ± 3.68% | 0.366 ± 0.031 µM | 
35 | O=S(=O)(NCC1CCCN(Cc2ccc(F)cc2Cl)C1)c1ccc2ccccc2c1 (stereo not drawn) |  | 73 ± 3.60% | 0.347 ± 0.06 µM | 
36 | O=S(=O)(NCC1CCCN(Cc2ccncc2)C1)c1ccc2ccccc2c1 (stereo not drawn) |  | n.i. | 1.67 ± 0.256 µM | 
37 | N#Cc1ccc(CN2CCCC(CNS(=O)(=O)c3ccc4ccccc4c3)C2)cc1 (stereo not drawn) |  | n.i. | 2.09 ± 0.328 µM | 
38 | CN(CC1CCCN(Cc2ccc(F)cc2)C1)S(=O)(=O)c1ccc2ccccc2c1 (stereo not drawn) |  | n.i. | 0.427 ± 0.044 µM | 
39 | COCCN(CC1CCCN(Cc2ccccc2)C1)S(=O)(=O)c1cccc2ccccc12 (stereo not drawn) |  | n.i. | 0.059 ± 0.0054 µM | 
40 | COCCN(CC1CCCN(Cc2ccccc2)C1)S(=O)(=O)c1ccc2ccc(OC)cc2c1 (stereo not drawn) |  | n.i. | 0.156 ± 0.033 µM | 
41 | COCCCN(CC1CCCN(Cc2ccccc2)C1)S(=O)(=O)c1ccc2ccc(OCC#N)cc2c1 (stereo not drawn) |  | n.i. | 0.113 ± 0.008 µM | 

From patent US10071964B2, “Disubstituted piperidines as butyrylcholinesterase inhibitors” (priority 2015, dated 2018)
